Assay results from paper PMC11207729, “Unveiling Anticancer Potential of COX-2 and 5-LOX Inhibitors: Cytotoxicity, Radiosensitization Potential and Antimigratory Activity against Colorectal and Pancreatic Carcinoma” (Pharmaceutics, 2024).
“And” between values parts separate entries of the source, which are not always exact repeats. Identical values can stand only once.

What was measured:
[1] = test system: HCT 116 cells; test: MTT cytotoxicity assay, HCT 116; assay type: cell-based, human; conditions: for IC50: Homo sapiens, HCT-116, MTT, 72 h after treatment, mean ± SEM; for Selectivity index (IC50 normal cell line/IC50 cancer cell lines), HCT 116: MRC-5 / HCT 116, in brackets
Procedure: (§1) SW620 cells were cultured in Dulbecco’s Modified Eagle’s medium (DMEM, Sigma-Aldrich Chemie GmbH, Steinheim, Germany) and supplemented in the same manner as the previously mentioned cell lines. Cells were grown in cell culture flasks T25 (Sarstedt AG & Co., Nümbrecht, Germany) at appropriate cell densities in the culture medium prior to exposure to treatments. Stock solutions of each compound, prepared in DMSO, were diluted in the culture medium to obtain the appropriate final concentrations.
(§2) The viability of the control and cells treated with the tested compounds was determined by MTT assay. Cells were seeded in 96-well plates at a density of 2000 cells/well, allowed to attach overnight, and then treated with rising concentrations of testing compounds. The ability of viable cells to reduce 3-(4,5-dimethylthiazol-2-yl)-2,5-diphenyltetrazolium bromide into blue-purple formazan crystals, was measured 72 h after the treatments. Namely, l mg/mL of MTT reagent (Sigma-Aldrich Chemie GmbH, Steinheim, Germany) was added to each well and incubated for an additional 4 h. Finally, upon removal of the medium containing MTT, 200 µL of DMSO was added to each well.

[2] = test system: BxPC-3 cells; test: MTT cytotoxicity assay, BxPC-3; assay type: cell-based, human; conditions: for IC50: MTT, 72 h after treatment, mean ± SEM; for Selectivity index (IC50 normal cell line/IC50 cancer cell lines), BxPC-3: MRC-5 / BxPC-3, in brackets
Procedure: as §1, §2

[3] = test system: MRC-5 cells; test: MTT cytotoxicity assay, MRC-5 normal fibroblasts; assay type: cell-based, human; conditions: for IC50: MTT, 72 h after treatment, mean ± SEM, healthy cell line; for Selectivity index, MRC-5: MRC-5 / MRC-5 (reference value), in brackets
[4] = test system: HT-29 cells; test: MTT cytotoxicity assay, HT-29; assay type: cell-based, human; conditions: for IC50: Homo sapiens, HT-29, MTT, 72 h after treatment, mean ± SEM; for Selectivity index (IC50 normal cell line/IC50 cancer cell lines), HT-29: MRC-5 / HT-29, in brackets
Procedure: as §1, §2

[5] = test system: SW620 cells; test: Wound-healing assay; assay type: cell-based, human; conditions: 25 μM; for Relative Wound Closure (%) 24 h: SW620, 24 h relative to T0, mean ± SEM, control 17.87 ± 3.48; for Relative Wound Closure (%) 48 h: SW620, 48 h relative to T0, mean ± SEM, control 24.51 ± 1.39
Procedure: The migratory potential of SW620 cells (human colon carcinoma cell line) was evaluated by a wound-healing assay. Cells were seeded in density of 300,000 cells per well in 24-well tissue culture microplates and grown for 24 h in DMEM medium supplemented with 10% FBS, penicillin/streptomycin and L-glutamine at 37 °C in a humidified atmosphere containing 5% CO2. Upon reaching confluence, a uniform wound was scratched into a monolayer of each well with a sterile plastic 200 μL micropipette tip. After wounding, the medium was replaced and cells were further treated with 25 μM of compounds 1, 2, 3, and 5 for 24 h and 48 h. Wound closure was monitored by imaging cells at 4× magnification using the ImageXpress® Pico Automated Cell Imaging System (Molecular Devices®, San Jose, CA, USA) immediately (T0), and at 24 h (T24) and 48 h (T48) after wounding. The captured images were analyzed by ImageJ software v. 1.52p (U.S. National Institutes of Health, Bethesda, MD, USA) to measure the degree of closure of the wounded area. Independent experiments were performed three times.

[6] = test system: SW620 cells; test: Cytotoxicity in SW620 cells after 24 h treatment (Table S2); assay type: cell-based; conditions: Homo sapiens, SW-620, read-out: IC50 (µM) following 24h treatment in SW620 cells
[7] = test system: HT-29 cells; test: SRB assay, compound plus γ-radiation, HT-29; assay type: cell-based, human; conditions: IC50 concentration 24 h before 2 Gy γ-radiation, SRB 72 h after irradiation
Procedure: In the experiments involving irradiation, cells were irradiated at room temperature, in the vertical position with the cell monolayer facing ^60Co γ-rays (CIRUS-Cis Biointernational). The irradiation of samples was performed in Vinča Institute of Nuclear Sciences, Belgrade, Serbia. In all experiments, a clinically relevant radiation dose of 2 Gy with the dose rate of ~1 Gy/min was applied.
For the evaluation of cell viability after treatments with radiation as well as after combined treatments, a sulforhodamine B (SRB) protein binding assay was used. This assay is based on the staining of cellular proteins. Maintaining conditions were identical to that of MTT assay. The cells were pretreated with IC50 concentrations of tested compounds for 24 h before irradiations. Following the 72 h post-irradiation incubation time under standard conditions (5% CO2, 37 °C) cells were fixed by protein precipitation with 10% trichloroacetic acid (TCA) at 4 °C for 1 h. Plates were rinsed with distillated water and stained with 0.4% SRB (Sigma-Aldrich Chemie GmbH, Steinheim, Germany) in 1% acetic acid, for 15 min at room temperature. Excess stain was removed by washing the wells in 1% acetic acid. After being rinsed, microwell plates were air dried until no staining moisture was visible. Bound dye was dissolved in 10 mM unbuffered Tris base (pH 10.5) for 5 min on a gyratory shaker. The absorbance of each well was measured using a microplate reader (Wallac VICTOR2 1420 Multilabel counter, PerkinElmer, Turku, Finland) at a test wavelength of 550 nm.

[8] = test system: SW620 cells; conditions: cited from earlier work
[9] = in vivo; conditions: in vivo
Procedure: Wild-type (AB) zebrafish embryos, kindly provided by Dr. Ana Cvejić (Wellcome Trust Sanger Institute, Cambridge, UK), were raised to adult stage in a temperature- and light-controlled zebrafish facility at 28 °C and a standard 14:10 h light–dark photoperiod. Fish were fed with commercial dry food (SDS200 and SDS300 granular food; Special Diet Services, Essex; UK and TetraMinTM flakes; Tetra Melle, Germany) twice a day, and with Artemia nauplii daily.
Embryos produced by pairwise mating were washed to remove debris, distributed at 10 per well into 24-well plates containing 1 mL of E3 medium (5 mM NaCl, 0.17 mM KCl, 0.33 mM CaCl2 and 0.33 mM MgSO4 in distilled water) and maintained at 28 °C. […] Dead embryos were recorded and discarded every 24 h. […] Experiments were performed in triplicate using 30 embryos for each concentration. At 120 hpf, embryos were anesthetized by the addition of 0.1% (w/v) tricaine solution (Sigma-Aldrich, St. Louis, MO, USA), photographed, and killed by freezing at −20 °C for ≥24 h.

Row | Structure (SMILES) | IC50 [1] [µM] | IC50 ([2]; Homo sapiens, BXPC-3, 72 h) [µM] | IC50 ([3]; Homo sapiens, MRC5, 72 h) [µM] | IC50 [4] [µM] | Selectivity index (IC50 normal cell line/IC50 cancer cell lines), HCT 116 [1] | Selectivity index (IC50 normal cell line/IC50 cancer cell lines), BxPC-3 [2] | Selectivity index, MRC-5 [3] | Selectivity index (IC50 normal cell line/IC50 cancer cell lines), HT-29 [4] | Relative Wound Closure (%) 24 h [5] | Relative Wound Closure (%) 48 h [5] | IC50 [6] [µM] | IC50 [2] [µM] | IC50 [3] [µM] | cell proliferation, combined treatment versus radiation alone, HT-29 [7] | antimigratory properties in SW620 cells ([8]; 30 μM, 48 h) | antimigratory effects on SW620 cell line ([8]; 10 nM, after 24 h) | LC50 [9] [µM] | migratory ability of SW620 cells ([8]; 400 μM, after 36 h)
1 | CCOc1ccccc1NC(=O)N(C)C [Compound 8] | > 100 | > 100 | > 100 | > 100 |  |  |  |  |  |  |  |  |  |  |  |  |  | 
2 | CC(=O)N(O)C(C)c1ccc(CC(C)C)cc1 (stereo not drawn) [Compound 11] | 82 ± 2.34 | 63 ± 3.8 | 57.1 ± 3.8 | 84.1 ± 3.43 | 0.70 | 0.91 | 1 | 0.68 |  |  |  |  |  |  |  |  |  | 
3 | CC(C)(C)c1cc(/C=C2\SC(=S)N(N)C2=O)cc(C(C)(C)C)c1O [Compound 13] | 2.21 ± 0.12 | 1.8 ± 0.1 | 57.1 ± 3.8 | 12.4 ± 1.95 | 25.84 | 31.72 | 1 | 4.60 |  |  |  |  |  |  |  |  |  | 
4 | CCOc1ccccc1NC(=O)Nc1ccc([N+](=O)[O-])cc1 [Compound 10] | 9.3 ± 0.38 | 6.05 ± 1.68 | 18.7 ± 0.98 | 7.08 ± 0.3 | 2.01 | 3.09 | 1 | 2.64 |  |  |  |  |  |  |  |  |  | 
5 | CN(C)C(=O)Nc1ccccc1C(=O)O [Compound 9] | > 100 | > 100 | > 100 | > 100 |  |  |  |  |  |  |  |  |  |  |  |  |  | 
6 | CC(NC(=O)NO)c1ccc(-c2ccccc2)c(F)c1 (stereo not drawn) [Compound 2] | 64.8 ± 2.76 | 48.7 ± 4.6 | 69.1 ± 3.07 | 82.4 ± 4.25 | 1.07 | 1.42 | 1 | 0.84 | 7.47 ± 2.14% | 11.61 ± 3.06% | 386 ± 11.8 |  |  |  |  |  |  | 
7 | COc1ccc2c(c1)c(CNC(=O)NO)c(C)n2C(=O)c1ccc(Cl)cc1 [Compound 1] | 4.97 ± 0.78 | 12.8 ± 1.11 | 9.68 ± 2.34 | 9.78 ± 0.68 | 1.95 | 0.76 | 1 | 0.99 | 3.20% and 3.20 ± 0.99% | 5.08% and 5.08 ± 2.46% | 215 ± 4.9 |  |  |  |  |  |  | 
8 | O=C(O)Cc1ccccc1Nc1c(Cl)cccc1Cl [Diclofenac, reference compound] | 79.1 ± 3.68 | 57.2 ± 3.03 |  | 75 ± 3.98 |  |  |  |  |  |  |  |  |  |  |  |  |  | 
9 | COc1ccc2cc(C(C)N(O)C(C)=O)ccc2c1 (stereo not drawn) [Compound 12] | > 100 | > 100 | > 100 | > 100 |  | 0.83 | 1 |  |  |  |  | 76.7 ± 5.54 | 63.6 ± 9.04 |  |  |  |  | 
10 | COC(=O)CNC(=O)c1cc(C(C)(C)C)c(O)c(C(C)(C)C)c1 [Compound 5] | 51.7 ± 1.78 | 41.2 ± 2.88 | > 100 | 81.6 ± 2.77 | > 1.94 | > 2.43 |  | > 1.22 | 7.12 ± 1.43% | 9.11 ± 0.27% | 132 ± 3.5 |  |  | significantly inactivated HT-29 cells |  |  |  | 
11 | Cc1ccc(-c2cc(C(F)(F)F)nn2-c2ccc(S(N)(=O)=O)cc2)cc1 [celecoxib] |  |  |  |  |  |  |  |  |  |  |  |  |  |  | comparable efficacy to compounds 1, 2, 3 and 5 |  |  | 
12 | CC(C(=O)O)c1ccc(-c2ccccc2)c(F)c1 (stereo not drawn) [Flurbiprofen, reference compound] | > 100 | > 100 | > 100 | > 100 |  |  |  |  |  |  |  |  |  |  |  | significant antimigratory effects |  | 
13 | COC(=O)C(Cc1cnc[nH]1)NC(=O)c1cc(C(C)(C)C)c(O)c(C(C)(C)C)c1 (stereo not drawn) [Compound 4] | 29.5 ± 5.23 | 24.7 ± 2.01 | 35.4 ± 4.14 | 42.3 ± 2.57 | 1.20 | 1.43 | 1 | 0.84 |  |  |  |  |  |  |  |  |  | 
14 | CC(c1cc2ccccc2s1)N(O)C(N)=O (stereo not drawn) [Zileuton, reference compound] | 44.9 ± 3.48 | 74.9 ± 4.1 | 95.74 ± 0.94 | 78.5 ± 2.28 | 2.13 | 1.28 | 1 | 1.22 |  |  |  |  |  |  |  |  | 4.41 | 
15 | COc1ccc2c(c1)c(CC(=O)O)c(C)n2C(=O)c1ccc(Cl)cc1 [Indomethacin, reference compound] | 60.4 ± 4.27 | 85.9 ± 2.58 | 79.8 ± 5.9 | 89.5 ± 4.45 | 1.32 | 0.93 | 1 | 0.89 |  |  |  |  |  |  |  |  |  | significantly decreased the migratory ability
